Results as given in patent US20110053995A1, “BENZENESULFONANILIDE COMPOUND INHIBITORS OF UREA TRANSPORTERS” (THE REGENTS OF THE UNIVERSITY OF CALIFORNIA, priority 2006, published 2011).

Target: T1, rat UT-A1 (Rattus norvegicus, UniProt Q62668)
T1 construct: expressed in transfected cells; host or cells: MDCK cells (gift of Dr. Jeffrey Sands, Emory University)
T1 sequence (Q62668 1-929): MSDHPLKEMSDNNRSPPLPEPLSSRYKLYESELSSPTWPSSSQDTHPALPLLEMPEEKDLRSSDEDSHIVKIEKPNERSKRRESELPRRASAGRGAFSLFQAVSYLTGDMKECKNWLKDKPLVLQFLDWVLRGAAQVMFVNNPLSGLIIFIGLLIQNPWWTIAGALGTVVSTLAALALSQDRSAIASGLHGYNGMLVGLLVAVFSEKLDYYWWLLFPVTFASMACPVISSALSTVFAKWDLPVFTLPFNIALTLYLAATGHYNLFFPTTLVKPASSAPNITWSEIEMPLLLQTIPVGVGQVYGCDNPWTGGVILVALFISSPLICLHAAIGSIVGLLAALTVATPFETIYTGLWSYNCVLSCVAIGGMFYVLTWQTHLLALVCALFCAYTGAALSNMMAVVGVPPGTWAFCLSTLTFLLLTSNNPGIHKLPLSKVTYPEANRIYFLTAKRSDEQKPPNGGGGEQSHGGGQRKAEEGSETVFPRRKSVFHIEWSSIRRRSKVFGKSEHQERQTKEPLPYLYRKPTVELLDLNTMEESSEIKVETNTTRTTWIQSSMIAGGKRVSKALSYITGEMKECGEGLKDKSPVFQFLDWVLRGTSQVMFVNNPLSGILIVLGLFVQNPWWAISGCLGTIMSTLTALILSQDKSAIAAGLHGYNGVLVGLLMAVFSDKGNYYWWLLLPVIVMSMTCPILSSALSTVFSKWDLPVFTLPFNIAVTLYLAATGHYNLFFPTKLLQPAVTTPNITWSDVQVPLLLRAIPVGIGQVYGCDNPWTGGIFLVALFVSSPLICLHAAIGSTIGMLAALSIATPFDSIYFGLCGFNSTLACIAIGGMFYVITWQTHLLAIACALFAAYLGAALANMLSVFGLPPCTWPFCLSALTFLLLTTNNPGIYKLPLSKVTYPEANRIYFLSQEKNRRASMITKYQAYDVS
Assay: UT-A1-facilitated urea flux across MDCK-UT-A1 cell layers
Assay type: cell-based
Details: forskolin-stimulated MDCK-UT-A1 cells, 15-min time point; read-out: EC50 against rat UT-A1
Experimental: Concentration-inhibition studies were performed to study the effect of the active mouse UT-B inhibitors on urea transport by UT-A. The amino acid sequences of UT-B and UT-A urea transporter isoforms share significant similarity. The cells used in these studies were MDCK cells that expressed rat UT-A1. MDCK-UT-A1-expressing cells were grown on collagen-coated porous filters until they were electrically tight, at which point 15 mM urea was introduced into buffer bathing the basolateral cell surface.
MDCK cells stably transfected with rat UT-A1 (MDCK-UT-A1) (Fröhlich et al., Am J Physiol. in press; Fröhlich et al., Am. J. Physiol. Cell Physiol. 286:C1264-70 (2004). Epub on Jan. 28, 2004) were generously provided by Dr. Jeffrey Sands (Emory University School of Medicine, Atlanta, Ga.). Cells were grown in Dulbecco's Modified Eagle Medium (DMEM) with bicarbonate and supplemented with 10% fetal bovine serum (FBS), 25 mM HEPES buffer, penicillin G (100 U/mL), streptomycin (100 μg/mL) and hygromycin (500 μg/mL). For determining urea flux, cells were grown on 12-mm collagen-coated TRANSWELL inserts (0.4 μm pore size; Costar) as described (Fröhlich et al., Am J Physiol. in press; Fröhlich et al., 2004, supra). The TRANSWELL inserts were incubated in hygromycin-free medium for 1 hr in a 5% CO2 tissue culture incubator (37° C.), and then 2×10^5 cells/cm^2 were loaded onto each insert. Cells were used after culturing the cells for 4 days in hygromycin-free medium, at which time they formed tight monolayers (transepithelial resistance 500-600 Ω·cm^2).
UT-A1-facilitated urea flux in the basolateral-to-apical direction across unstimulated and forskolin-stimulated MDCK-UT-A1 cell layers was measured in response to a 15-mM urea gradient. Experiments were carried out in 12-well plates in which PBS, containing either DMSO vehicle or forskolin, with or without UT-B inhibitor, added to both the apical-facing (0.2 mL) and basal-facing (1 mL) surfaces of cells on the porous filters. Cultures were incubated in the absence of urea for 30 min at 37° C. Then, the basal-facing solution was replaced with PBS (containing same components) with 15 mM urea. Five μL samples of apical fluid were collected at specified times during incubation at 37° C., and urea concentration was determined using a commercial kit based on chromogenic urea complexation at 520-nm wavelength (Quantichrom™ Urea Assay Kit, BioAssay Systems, Hayward, Calif.). Forskolin (10 μM), with or without UT-B transport inhibitors, was added from 1000× DMSO stock solutions (0.2% final DMSO content). Inhibition of UT-A1-mediated transport was defined as % inhibition=100% (Aforsk−Atest)/(Aforsk−Aphlor). Aforsk, and Aphlor were averaged absorbance values (at 520 nm) for cultures treated with forskolin and forskolin+phloretin, respectively, and Atest were values from cultures treated with forskolin+test compound.

Work on NC(=O)CSc1oc(-c2ccccc2)nc1S(=O)(=O)c1ccc(Br)cc1 [ureainh-101] yielded an EC50 of about 1.2 µM.
In the case of Cc1ccc(Nc2nnc(-c3ccc(C(N)=O)cc3)c3ccccc23)cc1 [ureainh-302], the EC50 is reported as about 15 µM.
